Measured values reported in the supplement of paper PMC4862054.

Tests used:
HCC1599 [1] = settings: 72 h
Procedure, shortened: (§1)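 The plates used were 384-well plates holding compound at 5 concentrations in 10-fold steps across a compound-specific 10,000-fold range, into which breast cancer cell lines were seeded in 20 µl suspension. Following 72 h incubation, CellTox Green fluorescence was read at 485/520 nm, and CellTiter-Glo luminescence was read after 10 min at room temperature. Normalisation on each plate used 0.1 % DMSO and a positive kill control. Dose-response curves gave the EC50, which was censored at the top concentration.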

BT-549 [2] = settings: 72 h
Procedure, shortened: as §1

CAL-148 [3] = settings: 72 h
Procedure, shortened: as §1

MCF-10A [4] = settings: 72 h
Procedure, shortened: as §1

HCC1143 [5] = settings: 72 h
Procedure, shortened: as §1

Hs578T [6] = settings: 72 h
Procedure, shortened: as §1

MDA-MB-231 [7] = settings: 72 h
Procedure, shortened: as §1

DU-4475 [8] = settings: 72 h
Procedure, shortened: as §1

CAL-85-1 [9] = settings: 72 h
Procedure, shortened: as §1

HCC1937 = settings: 72 h
Procedure, shortened: as §1

HDQ-P1 [10] = settings: 72 h
Procedure, shortened: as §1

SK-BR-3 [11] = settings: 72 h
Procedure, shortened: as §1

BT-474 [12] = settings: 72 h
Procedure, shortened: as §1

MDA-MB-436 = settings: 72 h
Procedure, shortened: as §1

CAL-51 [13] = settings: 72 h
Procedure, shortened: as §1

MDA-MB-453 [14] = settings: 72 h
Procedure, shortened: as §1

MFM-223 [15] = settings: 72 h
Procedure, shortened: as §1

MDA-MB-468 [16] = settings: 72 h
Experimental: (§2)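 Drug sensitivity and resistance testing (DSRT) of breast cancer cell lines in 384-well plates, 5 concentrations in 10-fold dilutions over a compound-specific 10,000-fold range. After 72 h, cytotoxicity was read by CellTox Green fluorescence and viability by CellTiter-Glo luminescence (multiplexed), normalised to DMSO and benzethonium chloride controls. EC50 is the inflection point of the fitted dose-response curve (bottom asymptote free, so it can be relative for partial curves) and is censored at the highest tested concentration. Rows with DSS 0 (no meaningful response) were excluded.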

BT-549 [17] = settings: 72 h; remark: listed apart in the source
Experimental: as §2

CAL-148 [18] = settings: 72 h; remark: listed apart in the source
Experimental: as §2

MCF-10A [19] = settings: 72 h; remark: listed apart in the source
Experimental: as §2

HCC1143 [20] = settings: 72 h; remark: listed apart in the source
Experimental: as §2

Hs578T [21] = settings: 72 h; remark: listed apart in the source
Experimental: as §2

MDA-MB-231 [22] = settings: 72 h; remark: listed apart in the source
Experimental: as §2

CAL-85-1 [23] = settings: 72 h; remark: listed apart in the source
Experimental: as §2

BT-474 [24] = settings: 72 h; remark: listed apart in the source
Experimental: as §2

CAL-51 [25] = settings: 72 h; remark: listed apart in the source
Experimental: as §2

MFM-223 [26] = settings: 72 h; remark: listed apart in the source
Experimental: as §2

HCC1599 [27] = test: normalised viability (% of control), CellTiter-Blue; higher = more viable cells (about 100 = DMSO control); settings: incubation time: 72 h
Procedure, shortened: (§3)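 After 72 h on compound-loaded 384-well plates, breast cancer cell lines received 2.5 µl CellTiter-Blue reagent for 2 h at 37 °C. Fluorescence at 560/590 nm was scaled per plate so that vehicle was 100 and a positive kill control was 0. The value stands for normalised viability at a single listed concentration of the series.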

CAL-120 = test: as above; settings: incubation time: 72 h
Procedure, shortened: as §3

SK-BR-3 [28] = test: as above; settings: incubation time: 72 h
Procedure, shortened: as §3

HCC1599 [29] = settings: 72 h; remark: listed apart in the source
Procedure, shortened: (§4)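 Breast cancer cell lines in 20 µl suspension were seeded onto 384-well plates that already held compound dissolved in 5 µl medium and were incubated for 72 h. Viability was measured by adding 2.5 µl CellTiter-Blue for 2 h at 37 °C and reading fluorescence at 560/590 nm. Each plate was normalised to vehicle and a positive kill control and checked by Z'-factor. EC50 was taken from a fitted percent-inhibition dose-response curve, censored at the highest concentration, and rows with a drug sensitivity score of zero were removed.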

MDA-MB-468 [30] = settings: 72 h; remark: listed apart in the source
Procedure, shortened: as §4

HCC1143 [31] = settings: 72 h; remark: listed apart in the source
Procedure, shortened: as §4

Hs578T [32] = settings: 72 h; remark: listed apart in the source
Procedure, shortened: as §4

MDA-MB-231 [33] = settings: 72 h; remark: listed apart in the source
Procedure, shortened: as §4

BT-474 [34] = settings: 72 h; remark: listed apart in the source
Procedure, shortened: as §4

MFM-223 [35] = settings: 72 h; remark: listed apart in the source
Procedure, shortened: as §4

DU-4475 [36] = settings: 72 h; remark: listed apart in the source
Procedure, shortened: as §4

CAL-85-1 [37] = settings: 72 h; remark: listed apart in the source
Procedure, shortened: as §4

HDQ-P1 [38] = settings: 72 h; remark: listed apart in the source
Procedure, shortened: as §4

MDA-MB-453 [39] = settings: 72 h; remark: listed apart in the source
Procedure, shortened: as §4

Structure (SMILES): Cc1c2oc3c(C)ccc(C(=O)N[C@@H]4C(=O)N[C@H](C(C)C)C(=O)N5CCC[C@H]5C(=O)N(C)CC(=O)N(C)[C@@H](C(C)C)C(=O)O[C@@H]4C)c3nc-2c(C(=O)N[C@@H]2C(=O)N[C@H](C(C)C)C(=O)N3CCC[C@H]3C(=O)N(C)CC(=O)N(C)[C@@H](C(C)C)C(=O)O[C@@H]2C)c(N)c1=O [Dactinomycin]
- EC50, CellTiter-Glo (HCC1599 [1]): 35.9 nM
- EC50, CellTiter-Glo (BT-549 [2]): 1.94 nM
- EC50, CellTiter-Glo (CAL-148 [3]): 1.56 nM
- EC50, CellTiter-Glo (MCF-10A [4]): 8.54 nM
- EC50, CellTiter-Glo (HCC1143 [5]): 8.69 nM
- EC50, CellTiter-Glo (Hs578T [6]): 11.1 nM
- EC50, CellTiter-Glo (MDA-MB-231 [7]): 12.7 nM
- EC50, CellTiter-Glo (DU-4475 [8]): 2.98 nM
- EC50, CellTiter-Glo (CAL-85-1 [9]): 9.71 nM
- EC50, CellTiter-Glo (HCC1937): 4.61 nM
- EC50, CellTiter-Glo (HDQ-P1 [10]): 2.14 nM
- EC50, CellTiter-Glo (SK-BR-3 [11]): 14.1 nM
- EC50, CellTiter-Glo (BT-474 [12]): 12 nM
- EC50, CellTiter-Glo (MDA-MB-436): 7.89 nM
- EC50, CellTiter-Glo (CAL-51 [13]): 5.11 nM
- EC50, CellTiter-Glo (MDA-MB-453 [14]): 18.4 nM
- EC50, CellTiter-Glo (MFM-223 [15]): 35.9 nM
- EC50, CellTox Green (MDA-MB-468 [16]): 43.6 nM
- EC50, CellTox Green (BT-549 [17]): 5.04 nM
- EC50, CellTox Green (CAL-148 [18]): 1.44 nM
- EC50, CellTox Green (MCF-10A [19]): 27 nM
- EC50, CellTox Green (HCC1143 [20]): 167 nM
- EC50, CellTox Green (Hs578T [21]): 30.5 nM
- EC50, CellTox Green (MDA-MB-231 [22]): 2.54 nM
- EC50, CellTox Green (CAL-85-1 [23]): 22.2 nM
- EC50, CellTox Green (BT-474 [24]): 354 nM
- EC50, CellTox Green (CAL-51 [25]): 2.1 nM
- EC50, CellTox Green (MFM-223 [26]): 93.9 nM
- normalised viability (HCC1599 [27]; 1 nM): 87.7%
- normalised viability (HCC1599 [27]; 100 nM): 18.1%
- normalised viability (HCC1599 [27]; 1000 nM): 12.8%
- normalised viability (CAL-120; 1 nM): 51%
- normalised viability (CAL-120; 100 nM): 11.9%
- normalised viability (CAL-120; 1000 nM): 9.97%
- normalised viability (SK-BR-3 [28]; 1 nM): 76%
- normalised viability (SK-BR-3 [28]; 100 nM): 3.88%
- normalised viability (SK-BR-3 [28]; 1000 nM): 4.85%
- EC50, CellTiter-Blue viability (HCC1599 [29]): 8.18 nM
- EC50, CellTiter-Blue viability (MDA-MB-468 [30]): 1.54 nM
- EC50, CellTiter-Blue viability (HCC1143 [31]): 1.52 nM
- EC50, CellTiter-Blue viability (Hs578T [32]): 0.99 nM
- EC50, CellTiter-Blue viability (MDA-MB-231 [33]): 1.35 nM
- EC50, CellTiter-Blue viability (BT-474 [34]): 16.1 nM
- EC50, CellTiter-Blue viability (MFM-223 [35]): 14.8 nM
- EC50, CellTiter-Blue viability (DU-4475 [36]): 0.72 nM
- EC50, CellTiter-Blue viability (CAL-85-1 [37]): 2.03 nM
- EC50, CellTiter-Blue viability (HDQ-P1 [38]): 1.67 nM
- EC50, CellTiter-Blue viability (MDA-MB-453 [39]): 1.9 nM

Structure (SMILES): COc1cccc2c1C(=O)c1c(O)c3c(c(O)c1C2=O)C[C@@](O)(C(=O)CO)C[C@@H]3O[C@H]1C[C@H](N)[C@H](O)[C@H](C)O1 [Doxorubicin]
- EC50, CellTiter-Glo (HCC1599 [1]): 597 nM
- EC50, CellTiter-Glo (BT-549 [2]): 154 nM
- EC50, CellTiter-Glo (CAL-148 [3]): 187 nM
- EC50, CellTiter-Glo (MCF-10A [4]): 856 nM
- EC50, CellTiter-Glo (HCC1143 [5]): 942 nM
- EC50, CellTiter-Glo (Hs578T [6]): 463 nM
- EC50, CellTiter-Glo (MDA-MB-231 [7]): 311 nM
- EC50, CellTiter-Glo (DU-4475 [8]): 177 nM
- EC50, CellTiter-Glo (CAL-85-1 [9]): 547 nM
- EC50, CellTiter-Glo (HDQ-P1 [10]): 465 nM
- EC50, CellTiter-Glo (SK-BR-3 [11]): 263 nM
- EC50, CellTiter-Glo (BT-474 [12]): 167 nM
- EC50, CellTiter-Glo (MDA-MB-436): 449 nM
- EC50, CellTiter-Glo (CAL-51 [13]): 41.5 nM
- EC50, CellTiter-Glo (MDA-MB-453 [14]): 607 nM
- EC50, CellTox Green (MDA-MB-468 [16]): 100 nM
- EC50, CellTox Green (CAL-148 [18]): 92.4 nM
- EC50, CellTox Green (CAL-85-1 [23]): 440 nM
- EC50, CellTox Green (CAL-51 [25]): 68 nM
- normalised viability (HCC1599 [27]; 1 nM): 93%
- normalised viability (HCC1599 [27]; 100 nM): 74.8%
- normalised viability (HCC1599 [27]; 1000 nM): 59%
- normalised viability (CAL-120; 1 nM): 96.2%
- normalised viability (CAL-120; 100 nM): 52.6%
- normalised viability (CAL-120; 1000 nM): 6.93%
- normalised viability (SK-BR-3 [28]; 1 nM): 87.9%
- normalised viability (SK-BR-3 [28]; 100 nM): 41.3%
- normalised viability (SK-BR-3 [28]; 1000 nM): 8.28%
- EC50, CellTiter-Blue viability (HCC1599 [29]): 83.5 nM
- EC50, CellTiter-Blue viability (MDA-MB-468 [30]): 150 nM
- EC50, CellTiter-Blue viability (HCC1143 [31]): 132 nM
- EC50, CellTiter-Blue viability (Hs578T [32]): 147 nM
- EC50, CellTiter-Blue viability (MDA-MB-231 [33]): 187 nM
- EC50, CellTiter-Blue viability (BT-474 [34]): 522 nM
- EC50, CellTiter-Blue viability (MFM-223 [35]): 558 nM
- EC50, CellTiter-Blue viability (DU-4475 [36]): 71.8 nM
- EC50, CellTiter-Blue viability (CAL-85-1 [37]): 279 nM
- EC50, CellTiter-Blue viability (HDQ-P1 [38]): 259 nM
- EC50, CellTiter-Blue viability (MDA-MB-453 [39]): 409 nM
